Source: US20050009924A1 (priority 2003, published 2005)

Experiments:
human hepatoma G2 cells = assay: Cytotoxicity assay (XTT colorimetric), Hep G2; type: cell-based; conditions: Homo sapiens, HepG2; 48 h of drug exposure
[1] = test system: transcriptional activity of hTERT; assay: SEAP reporter assay of hTERT expression, PhTERT-SEAP (hTERT-BJ1); type: cell-based, human; conditions: Homo sapiens, hTERT-BJ1, read-out: Relative SEAP activity (%)
In short: (§1)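 H1299 or hTERT-BJ1 cells stably carrying hTERT- or CMV-promoter–SEAP constructs (G418-selected), treated with compounds for 24 h at 37 °C. Media heated 65 °C for 10 min, mixed with diethanolamine buffer and 12 mM p-nitrophenyl phosphate; SEAP activity taken as the rate of A405 increase.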

[2] = MTT relative viability, PhTERT-SEAP (H1299) cells; conditions: human
Description: The tetrazolium reagent (MTT; 3-(4,5-di-methylthiazol)-2,5-diphenyl tetrazolium bromide, USB) was designed to yield a colored formazan upon metabolic reduction by viable cells. Approximately […] cells were plated onto each well of a 96-well plate and incubated in 5% CO2 at 37° C. for 24 h. To assess the in vitro cytotoxicity, each compound was dissolved in DMSO and prepared immediately before the experiments and was diluted into the complete medium before addition to cell cultures. Test compounds were then added to the culture medium for designated various concentrations. After 48 h, an amount of 25 μL of MTT was added to each well, and the samples were incubated at 37° C. for 4 h. A 100 μL solution of lysis buffer containing 20% SDS and 50% N,N-dimethylformamide was added to each well and incubated at 37° C. for another 16 h. The absorbency at 550 nm was measured using an ELISA reader.
Non small lung cancer cells H1299 (telomerase positive) were grown in RPMI 1640 media supplemented with 10% fetal bovine serum, 100 units/mL penicillin and 100 mg/mL streptomycin in a humidified atmosphere with 5% CO2 at 37° C. The hTERT immortalized hTERT-BJ1 (BD Biosciences Clontech)^39 were grown in DMEM media supplemented with 10% fetal calf serum, 100 units/mL penicillin and 100 mg/mL streptomycin, 1 mM sodium pyruvate, and 4 mM I-arginine in a humidified atmosphere with 5% CO2 at 37° C. Culture media were changed every 3 days. […] The stable clones derived from H1299 or hTERT-BJ1 were cultured using conditions that are similar to their parental cells.

rat glioma C6 cells = assay: Cytotoxicity assay (XTT colorimetric), C6 cells; type: cell-based; conditions: Rattus norvegicus, C6; 48 h of drug exposure
[3] = MTT relative viability, PhTERT-SEAP (hTERT-BJ1) cells; conditions: human
[4] = test system: iron-induced lipid peroxidation in rat brain homogenates; assay: Iron-induced lipid peroxidation in rat brain homogenates; conditions: for Inhibition of LP(10 mM): mean percent inhibition (Table 3); for LP (%) (10 mM): relative percentage of inhibition (Table 1)
[5] = test system: transcriptional activity of hTERT; assay: SEAP reporter assay of hTERT expression, PhTERT-SEAP (H1299); type: cell-based, human; conditions: Homo sapiens, NCI-H1299, H1299, read-out: Relative SEAP activity (%)
In short: as §1

[6] = hTERT-BJ1 cells, stable PhTERT-SEAP reporter clone

Row | SMILES | IC50 (human hepatoma G2 cells) [µM] | melting point [°C] | IC50 (rat glioma C6 cells) [µM] | Inhibition of LP(10 mM) ([4]; 10 mM) | activity at 2.1 µM [1] [%] | activity at 21 µM [1] [%] | activity at 210 µM [1] [%] | viability at 48 h, 2.1 µM [2] [%] | viability at 48 h, 21 µM [2] [%] | viability at 48 h, 210 µM [2] [%] | viability at 48 h, 2.1 µM [3] [%] | viability at 48 h, 21 µM [3] [%] | viability at 48 h, 210 µM [3] [%] | activity at 2.1 µM [5] [%] | activity at 21 µM [5] [%] | activity at 210 µM [5] [%] | LP (%) (10 mM) ([4]; 10 mM) | further results
1 | O=C(Oc1cccc2c1C(=O)c1cccc(OC(=O)c3ccccc3)c1C2=O)c1ccccc1 [IIIe, 1,5-Bis(benzoyloxy)-anthraquinone] | 47.7 ± 5.5 | 336 to 338 | 38.7 ± 3.6 | −50 ± 1.9^ % |  |  |  |  |  |  |  |  |  |  |  |  |  | activity at 2.2 µM [1]: 137 ± 10%; activity at 22 µM [1]: 122 ± 9.6%; activity at 220 µM [1]: 84 ± 21.7%; viability at 48 h, 2.2 µM [2]: 99 ± 7.3%; viability at 48 h, 22 µM [2]: 60 ± 11.9%; viability at 48 h, 220 µM [2]: 33 ± 4.7%; viability at 48 h, 2.2 µM [3]: 103 ± 6.5%; viability at 48 h, 22 µM [3]: 87 ± 9.8%; viability at 48 h, 220 µM [3]: 51 ± 4.6%; activity at 2.2 µM [5]: 88 ± 10%; activity at 22 µM [5]: 94 ± 8%; activity at 220 µM [5]: 86 ± 4.7%
2 | Cc1ccccc1C(=O)Oc1cccc2c1C(=O)c1cccc(OC(=O)c3ccccc3C)c1C2=O [IIIj, 1,5-Bis(2-toluoyloxy)-anthraquinone] | 21.6 ± 2.2 | 262 to 263 | 25.1 ± 2.8 | 23 ± 1.1% | 129 ± 13 | 120 ± 24 | 94 ± 27.1 | 72 ± 4.9 | 36 ± 9.7 | 45 ± 8 | 118 ± 11.6 | 82 ± 8.5 | 39 ± 13 | 97 ± 4.4 | 91 ± 7.4 | 90 ± 4.2 |  | 
3 | Cc1cccc(C(=O)Oc2cccc3c2C(=O)c2cccc(OC(=O)c4cccc(C)c4)c2C3=O)c1 [IIIk, 1,5-Bis(3-toluoyloxy)-anthraquinone] | 18.1 ± 1.5 | 269 to 270 | 30.1 ± 3.3 | −32 ± 1.5^ % | 141 ± 10.5 | 124 ± 15.6 | 86 ± 17.2 | 26 ± 3.7 | 28 ± 5 | 29 ± 3.3 | 98 ± 9.4 | 54 ± 7.5 | 47 ± 4.8 | 104 ± 5.4 | 116 ± 12.8 | 110 ± 16.4 |  | 
4 | Cc1ccc(C(=O)Oc2cccc3c2C(=O)c2cccc(OC(=O)c4ccc(C)cc4)c2C3=O)cc1 [IIIl, 1,5-Bis(4-toluoyloxy)-anthraquinone] | 9.3 ± 0.9 | 331 to 332 | 37.6 ± 4.1 | 33 ± 1.2% | 130 ± 8.8 | 126 ± 13.3 | 99 ± 15.8 | 61 ± 5.8 | 33 ± 2.8 | 32 ± 5.7 | 102 ± 13.9 | 98 ± 6.3 | 56 ± 6.2 | 98 ± 1.1 | 95 ± 4.3 | 95 ± 8.9 |  | 
5 | O=C(Cc1ccccc1)Oc1cccc2c1C(=O)c1cccc(OC(=O)Cc3ccccc3)c1C2=O [IIIm, 1,5-Bis(phenylacetyloxy)-anthraquinone] | 9 ± 1.5 | 202 to 203 | 39.1 ± 6.2 | −1 ± 0.2% | 129 ± 4.5 | 125 ± 4.3 | 100 ± 17.3 | 91 ± 4.2 | 53 ± 2.3 | 30 ± 1.6 | 106 ± 9 | 97 ± 8.2 | 64 ± 10.2 | 98 ± 0.3 | 101 ± 6.8 | 142 ± 14 |  | 
6 | O=C(CCc1ccccc1)Oc1cccc2c1C(=O)c1cccc(OC(=O)CCc3ccccc3)c1C2=O [IIIn, 1,5-Bis(phenylpropionyloxy)-anthraquinone] | 0.4 ± 0.1 | 219 to 220 | 40.1 ± 5.5 | >100% |  |  |  |  |  |  |  |  |  |  |  |  |  | activity at 2 µM ([1]; 2.0 μM): 126 ± 6.1%; activity at 20 µM ([1]; 20 μM): 124 ± 13.4%; activity at 200 µM ([1]; 200 μM): 110 ± 10.5%; viability at 48 h, 2 µM [2]: 111 ± 0.8%; viability at 48 h, 20 µM [2]: 101 ± 4.3%; viability at 48 h, 200 µM [2]: 54 ± 4.1%; viability at 48 h, 2 µM [3, 6]: 111 ± 7.3%; viability at 48 h, 20 µM [3, 6]: 106 ± 6.6%; viability at 48 h, 200 µM [3, 6]: 76 ± 7.2%; Inhibition (%) ([4]; 0.01 mM): 50 ± 0.8%; Inhibition (%) ([4]; 0.1 mM): 95 ± 2.0%; Inhibition (%) ([4]; 1 mM): >100%; Inhibition (%) ([4]; 10 mM): >100%; activity at 2 µM ([5]; 2.0 μM): 94 ± 2.5%; activity at 20 µM ([5]; 20 μM): 98 ± 4.7%; activity at 200 µM ([5]; 200 μM): 89 ± 5.2%
7 | CCSc1cccc2c1C(=O)c1cccc(SCC)c1C2=O [IIa, 1,5-Bis(ethylthio)-anthraquinone] | 12.2 ± 1.1 | 235 to 236 | 0.02 ± 0.01 |  |  |  |  |  |  |  |  |  |  |  |  |  | 83 ± 2.2 | activity at 3 µM ([1]; 3.0 μM): 109 ± 22.4%; activity at 30 µM ([1]; 30 μM): 110 ± 14.3%; activity at 300 µM ([1]; 300 μM): 104 ± 20.6%; viability at 48 h, 3 µM [2]: 111 ± 2.8%; viability at 48 h, 30 µM [2]: 44 ± 7.3%; viability at 48 h, 300 µM [2]: 25 ± 2.3%; viability at 48 h, 3 µM [3]: 112 ± 9.2%; viability at 48 h, 30 µM [3]: 98 ± 12.3%; viability at 48 h, 300 µM [3]: 34 ± 18.1%; activity at 3 µM ([5]; 3.0 μM): 134 ± 14.4%; activity at 30 µM ([5]; 30 μM): 111 ± 7.7%; activity at 300 µM ([5]; 300 μM): 99 ± 14.3%
8 | CCCSc1cccc2c1C(=O)c1cccc(SCCC)c1C2=O [IIc, 1,5-Bis(propylthio)-anthraquinone] | 75.1 ± 2.5 | 232 to 233 | 29.9 ± 2.1 |  |  |  |  |  |  |  |  |  |  |  |  |  | 15 ± 1.5 | activity at 2.8 µM ([1]; 2.8 μM): 132 ± 21%; activity at 28 µM ([1]; 28 μM): 110 ± 13.2%; activity at 280 µM ([1]; 280 μM): 122 ± 14.3%; viability at 48 h, 2.8 µM [2]: 96 ± 5.9%; viability at 48 h, 28 µM [2]: 44 ± 2.5%; viability at 48 h, 280 µM [2]: 25 ± 2.4%; viability at 48 h, 2.8 µM [3]: 103 ± 6.3%; viability at 48 h, 28 µM [3]: 97 ± 3%; viability at 48 h, 280 µM [3]: 39 ± 4.9%; activity at 2.8 µM ([5]; 2.8 μM): 73 ± 5.4%; activity at 28 µM ([5]; 28 μM): 29 ± 2.5%; activity at 280 µM ([5]; 280 μM): 17 ± 13.9%
9 | O=C1c2cccc(SCCCCCCO)c2C(=O)c2cccc(SCCCCCCO)c21 [IIe, 1,5-Bis(hydroxyhexylthio)-anthraquinone] | 49.3 ± 2.1 | 195 to 196 | 31.7 ± 1.6 |  | 140 ± 9.7 | 128 ± 14.4 | 75 ± 17.4 | 99 ± 6.2 | 94 ± 3.9 | 36 ± 4.2 | 99 ± 6.2 | 70 ± 2.2 | 40 ± 4.7 | 110 ± 6.1 | 100 ± 5.5 | 68 ± 5.9 | 54 ± 1.9 | 
10 | Nc1cccc(Sc2cccc3c2C(=O)c2cccc(Sc4cccc(N)c4)c2C3=O)c1 [IIg, 1,5-Bis(m-aminophenylthio)-Anthraquinone] | 21.5 ± 1.2 | 292 to 293 | 26.3 ± 2.8 |  |  |  |  |  |  |  |  |  |  |  |  |  | 6 ± 0.9 | activity at 2.2 µM [1]: 118 ± 9.9%; activity at 22 µM [1]: 41 ± 9.5%; activity at 220 µM [1]: 8 ± 30.6%; viability at 48 h, 2.2 µM [2]: 92 ± 3.5%; viability at 48 h, 22 µM [2]: 68 ± 1.9%; viability at 48 h, 220 µM [2]: 32 ± 4.9%; viability at 48 h, 2.2 µM [3]: 104 ± 5.1%; viability at 48 h, 22 µM [3]: 9 ± 3.4%; viability at 48 h, 220 µM [3]: 4 ± 1.5%; activity at 2.2 µM [5]: 106 ± 7.6%; activity at 22 µM [5]: 109 ± 11.7%; activity at 220 µM [5]: 101 ± 7.3%
